Reference: patent US4866069A, “Substance 4181-2 and its derivatives having anti-leukemia activity” (Taiho Pharmaceutical Company, Limited, priority 1986, dated 1989)
≈ marks a conversion by molar mass, not a printed value.

How the values were obtained:
[1] = tested on: leukemia P388 cells; assay: Antitumor activity: life span-prolonging effect in mouse leukemia; type: in vivo, BDF1 mice; settings: for % Increase in survival time / Mean survival time: 3 mg/kg intraperitoneally, day after i.p. injection of 1×10^6 P388 cells, BDF1 mice; for % Increase in survival time: ((D/D0)-1)×100 vs untreated; for Mean survival time: untreated control 9.3 ± 0.8 days
Description: The antitumor activity of Substance 4181-2 and its derivatives was evaluated in terms of the increase in life span. One ×10^6 of leukemia P388 cells were intraperitoneally injected to BDF1 mice. Each group consisted of 6 mice. On the following day, each of Compounds 1-4, suspended in 0.2% solution of Tween 80 in physiological saline, was administered intraperitoneally and the survival time in days was determined. The percent increase in survival time was calculated by means of the following formula.
Percent increase in survival time=((D/D0)-1)×100 wherein D0 stands for the mean survival time (days) in the untreated group and D stands for the mean survival time (days) in the treated group.

[2] = Acute toxicity study (up-and-down method); parameters: species or system mice of ddY strain; settings: mouse, in vivo, ip, intraperitoneal, male ddY mice, 25 g
Description: Male mice of ddY strain (body weight 25 g) were used. Each of Compounds 1-4 was suspended in 0.2% solution of Tween 80 in physiological saline and administered intraperitoneally to the animals. The LD50 values (mg/kg) were determined by the up-and-down method.

[3] = tested on: Aspergillus niger IFO 6341; assay: Antimicrobial spectrum (MIC), two-fold serial dilution; type: cell-based; settings: IFO6341, Sabouraud's agar medium
Description: (§1) The antibacterial and antifungal spectra of Substance 4181-2 were investigated. Using nutrient agar medium for gram-positive and gram-negative bacteria and Sabouraud's agar medium for fungi, the minimal inhibitory concentration (MIC) was determined by a two-fold serial dilution method.

[4] = tested on: Pseudomonus fluorescens IFO 12180; assay: as above; type: cell-based; settings: nutrient agar medium
Description: as §1

[5] = tested on: Escherichia coli B IFO 13168; assay: as above; type: cell-based; settings: IFO13168, nutrient agar medium
Description: as §1

[6] = tested on: Bacillus subtilis ATCC 6633; assay: as above; type: cell-based; settings: ATCC6633, nutrient agar medium
Description: as §1

[7] = tested on: Penicillium notatum IFO 4640; assay: as above; type: cell-based; settings: Penicillium chrysogenum, IFO4640, Sabouraud's agar medium
Description: as §1

[8] = tested on: Trichophyton mentagrophytes IFO 5466; assay: as above; type: cell-based; settings: IFO5466, Sabouraud's agar medium
Description: as §1

[9] = tested on: Saccharomyces delbrueckii IAM 12236; assay: as above; type: cell-based; settings: Torulaspora delbrueckii, IAM12236, Sabouraud's agar medium
Description: as §1

[10] = tested on: Candida albicans IFO 1061; assay: as above; type: cell-based; settings: IFO1061, Sabouraud's agar medium
Description: as §1

[11] = tested on: Staphylococcus aureus 209P; assay: as above; type: cell-based; settings: nutrient agar medium
Description: as §1

[12] = tested on: Proteus vulgalis IFO 3045; assay: as above; type: cell-based; settings: nutrient agar medium
Description: as §1

[13] = tested on: Micrococcus flavus ATCC 10240; assay: as above; type: cell-based; settings: ATCC10240, nutrient agar medium
Description: as §1

[14] = tested on: Klebsiella pneumoniae ATCC 10031; assay: as above; type: cell-based; settings: ATCC10031, nutrient agar medium
Description: as §1

[15] = tested on: microorganisms including gram-positive bacteria, gram-negative bacteria and fungi; assay: Antimicrobial activity (summary statement); type: cell-based
Description: as §1

[16] = literature statement; cited from earlier work

| SMILES | % Increase in survival time [1] [%] | Mean survival time [1] [days] | LD50 [2] [mg/kg] | antimicrobial activity (in words) [16] | other results |
| --- | --- | --- | --- | --- | --- |
| COc1cc2oc3c(c(=O)c2cc1O)C(=O)c1c(ccc2cc4c(c(O)c12)C(=O)N1CCOC1(C)C4)C3=O (stereo not shown) [Compound 1, Substance 4181-2] | 94 | 18.0 ± 1.4 | ≥ 40 | – | antitumor activity (in words) ([1]; summary statement): excellent antitumor activity; MIC [3]: 3.13 µg/mL (≈ 6.1 µM); MIC [4]: 0.2 µg/mL (≈ 0.39 µM); MIC [5]: 1.56 µg/mL (≈ 3.04 µM); MIC [6]: 0.2 µg/mL (≈ 0.39 µM); MIC [7]: 1.56 µg/mL (≈ 3.04 µM); MIC [8]: 0.78 µg/mL (≈ 1.52 µM); MIC [9]: 1.56 µg/mL (≈ 3.04 µM); MIC [10]: 0.39 µg/mL (≈ 0.76 µM); MIC [11]: 0.2 µg/mL (≈ 0.39 µM); MIC [12]: 0.39 µg/mL (≈ 0.76 µM); MIC [13]: 0.2 µg/mL (≈ 0.39 µM); MIC [14]: 3.13 µg/mL (≈ 6.1 µM); antimicrobial spectrum (in words) [15]: broad antimicrobial spectrum |
| COc1cc2oc3c(c(=O)c2cc1OC(C)=O)C(=O)c1c(ccc2cc4c(c(OC(C)=O)c12)C(=O)N1CCOC1(C)C4)C3=O (stereo not shown) [Compound 2, diacetyl derivative of Substance 4181-2] | 59 | 14.8 ± 0.8 | ≥ 40 | – | – |
| COc1cc2oc3c(c(=O)c2cc1OC)C(=O)c1c(ccc2cc4c(c(O)c12)C(=O)N1CCOC1(C)C4)C3=O (stereo not shown) [Compound 3, monomethyl derivative of Substance 4181-2] | 63 | 15.2 ± 1.7 | ≥ 40 | – | – |
| COc1cc2oc3c(c(=O)c2cc1OC)C(=O)c1c(ccc2cc4c(c(OC(C)=O)c12)C(=O)N1CCOC1(C)C4)C3=O (stereo not shown) [Compound 4, monomethyl monoacetyl derivative of Substance 4181-2] | 53 | 14.2 ± 0.8 | ≥ 40 | – | – |
| COc1cc2oc3c(O)c4ccc5cc6c(c(O)c5c4c(O)c3c(=O)c2cc1OC)C(=O)N1CCOC1(C)C6 (stereo not shown) [cervinomycin A1] | – | – | – | have antimicrobial activity | – |
| COc1cc2oc3c(c(=O)c2cc1OC)C(=O)c1c(ccc2cc4c(c(O)c12)C(=O)N1CCOC1(C)C4)C3=O (stereo not shown) [cervinomycin A2] | – | – | – | have antimicrobial activity | – |
